Values joined by “and” are separate entries in the source; they are usually repeats but may differ in a detail not shown here. Identical values can stand only once. Like-named read-outs stand apart in the source and are kept apart here.
Tests used:
[1] = tested on: Normal human epidermal keratinocytes (NHEK); assay: Keratinocyte proliferation (DNA content, fluorometric); format: cell-based
Procedure: Normal human epidermal keratinocytes (NHEK) derived from neonatal foreskin were used for all experiments. Media were purchased from Clonetics Corp., San Diego, Calif. Cell stocks frozen in passage 2 were grown in Keratinocyte Growth Medium (KGM) and passaged when 70-80% confluent. Cells were seeded in 96 well plates (Corning) at a density of 7500 cells/well in KGM. After 24 hours, cells were rinsed and dosed with test compounds in 200 μl of Keratinocyte Basal Medium (KBM). Plates were incubated for three days at 37° C., 5% CO2. Cell proliferation was estimated by assaying for DNA content by a fluorometric method described by Rago et al. (Analytical Biochemistry, 191:31-34, 1990). Medium was removed and cells were rinsed with phosphate buffered saline solution. 100 μl of sterile distilled water was added to each well and plates were frozen at -70° C. for one and a half hours. Plates were thawed for one hour at which time 100 μl of a 20 ug/ml solution of Bisbenzimide H33258 fluorochrome (Calbiochem Corp., La Jolla, Calif.) was added to each well. The fluorochrome was prepared just prior to use in 10 mM Tris, 1 mM EDTA, 4M NaCl, pH 7.4. Plates were read in a Millipore Cytofluor fluorescent plate reader to quantify DNA (excitation 360 nm, emission 460 nm). Percent increase over control was calculated from blank-corrected readings as (treated-untreated)/(untreated)*100%.

[2] = tested on: Neonatal human dermal fibroblasts; assay: Collagen synthesis (secreted procollagen 1 immunoassay); format: cell-based; conditions: 0.2 to 20 mM, 48 hours, serum-free medium
Procedure: Neonatal human dermal fibroblasts were purchased from Clonetics Corp., San Diego, Calif. All materials for cell culture were purchased from Life Technologies, N.Y. Cells were maintained in DMEM with 10% fetal bovine serum and used in passages 5-10, Confluent 96-well plates containing fibroblasts were treated with test materials (0.2 to 20 mM) in serum-free medium for 48 hours. […] This was carried out in a BioDot SF apparatus according to the manufacturer's instructions (BioRad Labs, CA) and the blot was developed using a Vectastain Kit (PK6104, Vector Labs, CA) as per the manufacturer's directions. Color intensity was quantitated using an Ultroscan XL densitometer (Pharmacia LKB). Fold increase was calculated as (density of treated)/untreated.

[3] = tested on: Fibroblast Lactate Dehydrogenase; assay: Lactate dehydrogenase (LDH) inhibition, fibroblast lysate; format: biochemical, human
Procedure: All reagents were purchased from Sigma Chemical Co., St. Louis, Mo, USA. Sigma procedure No. 500 was modified for our purposes. One mL of pyruvate substrate (Sigma […]-1, pH=7.5) was added to a vial containing 1 mg NADH (Sigma 340-101). In a 96-well plate, the following components were added to each test well: 10 μl pyruvate/NADH mixture, and 10 μl cell lysate. For preparation of cell lysates, neonatal human keratinocytes or fibroblasts (Clonetic Corp., San Diego, Calif.) were cultured in tissue culture plates (Corning, USA). Cells were scraped in PBS (pH=7.4) and this solution was used as a source of L-lactate dehydrogenase. If such cell lysate was not available, a commercial preparation of L-lactic dehydrogenase (E.C.1.1.1.27), Sigma L9889, from porcine heart could be used in place of the cell lysate. For positive control, the inhibitor was replaced with 10 μl of PBS. For blank determination, the lysate or enzyme was replaced with […]. After mixing, the plate was incubated for 30 minutes at 37° C. Then 20 μl of color reagent (Sigma 505-2) was added to each well. After 20 minutes at room temperature, 150 μI of 0.4N NaOH was added, and the plate was read for absorbance at 490 nm in a Dynatech MR 7000 Microplate Reader. To calculate % inhibition, the control activity (CA) was first determined by subtracting the absorbance of the positive control from the blank, Then the activity in the presence of the inhibitor (IA) was calculated by subtracting the appropriate absorbance from the blank. %/, Inhibition was then calculated as: ((CA-IA)/CA)* 100%/.

## NC(=O)C(=O)O [Oxamate]
[1]; Homo sapiens, NHEK, 72 h, Table 3, oxamate 0.025 mM, read-out: % Increase Over Control (keratinocyte proliferation)
  activation at 25 µM: 20%
[1]; Homo sapiens, NHEK, 72 h, Table 3, oxamate 0.313 mM, read-out: % Increase Over Control (keratinocyte proliferation)
  activation at 313 µM: 18%
[1]; Homo sapiens, NHEK, 72 h, Table 3, oxamate 1.25 mM, read-out: % Increase Over Control (keratinocyte proliferation)
  activation at 1250 µM: 28%
[1]; Homo sapiens, NHEK, 72 h, Table 3, oxamate 20 mM, read-out: % Increase Over Control (keratinocyte proliferation)
  activation at 20000 µM: 0%
[1]; Table 3, oxamate 0.025 mM
  % Increase Over Control (keratinocyte proliferation): 19%
[1]; Table 3, oxamate 0.313 mM
  % Increase Over Control (keratinocyte proliferation): 32%
[1]; Table 3, oxamate 1.25 mM
  % Increase Over Control (keratinocyte proliferation): 24% and 40%
[1]; Table 11, oxamate 2.5 mM, pyruvate 0
  % Increase Over Control: 0%
[1]; Table 11, oxamate 5.0 mM, pyruvate 0
  % Increase Over Control: 0%
[1]; Table 11, oxamate 10 mM, pyruvate 0
  % Increase Over Control: 0%
[1]; Table 11, oxamate 15 mM, pyruvate 0
  % Increase Over Control: 0%
[1]; Table 11, oxamate 20 mM, pyruvate 0
  % Increase Over Control: 0%
[1]; Table 12, oxamate 0.313 mM, malate 0
  % Increase Over Control: 32%
[1]; Table 12, oxamate 0.625 mM, malate 0
  % Increase Over Control: 19%
[1]; Table 12, oxamate 1.25 mM, malate 0
  % Increase Over Control: 40%
[1]; Table 12, oxamate 2.5 mM, malate 0
  % Increase Over Control: 25%
[1]; Table 12, oxamate 5.0 mM, malate 0
  % Increase Over Control: 20%
[1]; Table 12, oxamate 10 mM, malate 0
  % Increase Over Control: 0%
[2]
  Maximum fold over Control (collagen synthesis): 1.4 fold

## O=C(O)CCC(=O)C(=O)O [Ketoglutarate]
[2]
  Maximum fold over Control (collagen synthesis): 2.2 fold

## O=C(O)C[C@H](O)C(=O)O [L-Malate]
[3]; 0.625 mM
  % Inhibition: 0%
[3]; 1.25 mM
  % Inhibition: 0%
[3]; 2.5 mM
  % Inhibition: 0%
[3]; 5 mM
  % Inhibition: 0%
[1]; Homo sapiens, NHEK, 72 h, read-out: % Increase Over Control (keratinocyte proliferation), Table 5, L-malate 0.002 mM
  activation at 2 µM: 34%
[1]; Homo sapiens, NHEK, 72 h, read-out: % Increase Over Control (keratinocyte proliferation), Table 5, L-malate 0.02 mM
  activation at 20 µM: 27%
[1]; Homo sapiens, NHEK, 72 h, read-out: % Increase Over Control (keratinocyte proliferation), Table 5, L-malate 0.2 mM
  activation at 200 µM: 36%
[1]; Table 5, L-malate 0.2 mM
  % Increase Over Control (keratinocyte proliferation): 19% and 29%
[1]; Table 12, oxamate 0, malate 0.156 mM
  % Increase Over Control: 33%
[1]; Table 12, oxamate 0, malate 0.313 mM
  % Increase Over Control: 29%
[1]; Table 12, oxamate 0, malate 0.625 mM
  % Increase Over Control: 36%
[1]; Table 12, oxamate 0, malate 1.25 mM
  % Increase Over Control: 25%
[1]; Table 12, oxamate 0, malate 2.5 mM
  % Increase Over Control: 39%
[1]; Table 12, oxamate 0, malate 5.0 mM
  % Increase Over Control: 20%

## O=C(O)CCC(=O)O [Succinate]
[2]
  Maximum fold over Control (collagen synthesis): 2.8 fold

## CC(=O)C(=O)O [Pyruvate]
[1]; Table 11, oxamate 0, pyruvate 0.156 mM
  % Increase Over Control: 2%
[1]; Table 11, oxamate 0, pyruvate 0.313 mM
  % Increase Over Control: 0%
[1]; Table 11, oxamate 0, pyruvate 0.625 mM
  % Increase Over Control: 3%
[1]; Table 11, oxamate 0, pyruvate 1.25 mM
  % Increase Over Control: 0%
[1]; Table 11, oxamate 0, pyruvate 2.5 mM
  % Increase Over Control: 7%
[1]; Table 11, oxamate 0, pyruvate 5.0 mM
  % Increase Over Control: 0%

## C[C@H](O)C(=O)O [L-lactate]
[3]; 0.625 mM
  % Inhibition: 0%
[3]; 1.25 mM
  % Inhibition: 0%
[3]; 2.5 mM
  % Inhibition: 0%
[3]; 5 mM
  % Inhibition: 0%

## O=C(O)CC(O)(CC(=O)O)C(=O)O [Citrate]
[1]; Homo sapiens, NHEK, 72 h, read-out: % Increase Over Control (keratinocyte proliferation), Table 6, citrate 0.01 mM
  activation at 10 µM: 25%
[1]; Homo sapiens, NHEK, 72 h, read-out: % Increase Over Control (keratinocyte proliferation), Table 6, citrate 0.1 mM
  activation at 100 µM: 40%
[1]; Homo sapiens, NHEK, 72 h, read-out: % Increase Over Control (keratinocyte proliferation), Table 6, citrate 0.15 mM
  activation at 150 µM: 18%
[1]; Homo sapiens, NHEK, 72 h, read-out: % Increase Over Control (keratinocyte proliferation), Table 6, citrate 0.3 mM
  activation at 300 µM: 39%
[1]; Homo sapiens, NHEK, 72 h, read-out: % Increase Over Control (keratinocyte proliferation), Table 6, citrate 0.6 mM
  activation at 600 µM: 35%
[1]; Homo sapiens, NHEK, 72 h, read-out: % Increase Over Control (keratinocyte proliferation), Table 6, citrate 1.0 mM
  activation at 1000 µM: 20%
[1]; Homo sapiens, NHEK, 72 h, read-out: % Increase Over Control (keratinocyte proliferation), Table 6, citrate 1.25 mM
  activation at 1250 µM: 18%
[1]; Homo sapiens, NHEK, 72 h, read-out: % Increase Over Control (keratinocyte proliferation), Table 6, citrate 2.5 mM
  activation at 2500 µM: 0%
[1]; Homo sapiens, NHEK, 72 h, read-out: % Increase Over Control (keratinocyte proliferation), Table 6, citrate 5.0 mM
  activation at 5000 µM: 0%
[1]; Homo sapiens, NHEK, 72 h, read-out: % Increase Over Control (keratinocyte proliferation), Table 6, citrate 10 mM
  activation at 10000 µM: 0%
[1]; Homo sapiens, NHEK, 72 h, read-out: % Increase Over Control (keratinocyte proliferation), Table 7, 0.002 mM
  activation at 2 µM: 22%
[1]; Homo sapiens, NHEK, 72 h, read-out: % Increase Over Control (keratinocyte proliferation), Table 7, 0.02 mM
  activation at 20 µM: 31%
[1]; Homo sapiens, NHEK, 72 h, read-out: % Increase Over Control (keratinocyte proliferation), Table 7, 20 mM
  activation at 20000 µM: 0%

## C[C@@H](O)C(=O)O [D-lactate]
[3]; 0.625 mM
  % Inhibition: 0%
[3]; 1.25 mM
  % Inhibition: 0%
[3]; 2.5 mM
  % Inhibition: 0%
[3]; 5 mM
  % Inhibition: 0%

## CC(=O)O [Acetate]
[2]
  Maximum fold over Control (collagen synthesis): 2.0 fold

## c1cn[nH]c1 [Pyrazole]
[3]; 0.625 mM
  % Inhibition: 0%
[3]; 1.25 mM
  % Inhibition: 0%
[3]; 2.5 mM
  % Inhibition: 0%
[3]; 5 mM
  % Inhibition: 0%

## CC(S)C(=O)O (centres unmarked) [Thio-Lactate, Thiolactate]
[1]; Homo sapiens, NHEK, 72 h, Table 4, 0.313 mM, read-out: % increase over control (keratinocyte proliferation)
  activation at 313 µM: 9%
[1]; Homo sapiens, NHEK, 72 h, Table 4, 0.625 mM, read-out: % increase over control (keratinocyte proliferation)
  activation at 625 µM: 29%
[1]; Homo sapiens, NHEK, 72 h, Table 4, 1.25 mM, read-out: % increase over control (keratinocyte proliferation)
  activation at 1250 µM: 27%
[1]; Homo sapiens, NHEK, 72 h, Table 4, 2.5 mM, read-out: % increase over control (keratinocyte proliferation)
  activation at 2500 µM: 5%
[1]; Homo sapiens, NHEK, 72 h, Table 4, 5 mM, read-out: % increase over control (keratinocyte proliferation)
  activation at 5000 µM: 0%

## O=C(O)CC(C(=O)O)C(O)C(=O)O (centres unmarked) [Isocitrate]
[1]; Homo sapiens, NHEK, 72 h, read-out: % Increase Over Control (keratinocyte proliferation), Table 8, isocitrate 0.0002 mM
  activation at 0.2 µM: 0%
[1]; Homo sapiens, NHEK, 72 h, read-out: % Increase Over Control (keratinocyte proliferation), Table 8, isocitrate 0.002 mM
  activation at 2 µM: 39%
[1]; Homo sapiens, NHEK, 72 h, read-out: % Increase Over Control (keratinocyte proliferation), Table 8, isocitrate 0.156 mM
  activation at 156 µM: 32%
[1]; Homo sapiens, NHEK, 72 h, read-out: % Increase Over Control (keratinocyte proliferation), Table 8, isocitrate 0.313 mM
  activation at 313 µM: 40%
[1]; Homo sapiens, NHEK, 72 h, read-out: % Increase Over Control (keratinocyte proliferation), Table 8, isocitrate 0.625 mM
  activation at 625 µM: 32%
[1]; Homo sapiens, NHEK, 72 h, read-out: % Increase Over Control (keratinocyte proliferation), Table 8, isocitrate 1.25 mM
  activation at 1250 µM: 40%
[1]; Homo sapiens, NHEK, 72 h, read-out: % Increase Over Control (keratinocyte proliferation), Table 8, isocitrate 2.0 mM
  activation at 2000 µM: 40%
[1]; Homo sapiens, NHEK, 72 h, read-out: % Increase Over Control (keratinocyte proliferation), Table 8, isocitrate 2.5 mM
  activation at 2500 µM: 32%
[1]; Homo sapiens, NHEK, 72 h, read-out: % Increase Over Control (keratinocyte proliferation), Table 8, isocitrate 5.0 mM
  activation at 5000 µM: 18%
[1]; Homo sapiens, NHEK, 72 h, read-out: % Increase Over Control (keratinocyte proliferation), Table 8, isocitrate 10 mM
  activation at 10000 µM: 0%
[1]; Table 8, isocitrate 0.002 mM
  % Increase Over Control (keratinocyte proliferation): 20%
[1]; Table 8, isocitrate 2.0 mM
  % Increase Over Control (keratinocyte proliferation): 30%

## N[C@@H](CCC(=O)O)C(=O)O [Glutamate]
[2]
  Maximum fold over Control (collagen synthesis): 3.6 fold

## O=C(O)CO [Glycolate]
[3]; 0.625 mM
  % Inhibition: 0%
[3]; 1.25 mM
  % Inhibition: 0%
[3]; 2.5 mM
  % Inhibition: 0%
[3]; 5 mM
  % Inhibition: 0%

## O=C(O)CC(=O)O [Malonate]
[3]; 0.625 mM
  % Inhibition: 0%
[3]; 1.25 mM
  % Inhibition: 0%
[3]; 2.5 mM
  % Inhibition: 0%
[3]; 5 mM
  % Inhibition: 0%

## NCC(=O)O [Glycinate]
[3]; 0.625 mM
  % Inhibition: 0%
[3]; 1.25 mM
  % Inhibition: 0%
[3]; 2.5 mM
  % Inhibition: 0%
[3]; 5 mM
  % Inhibition: 0%

## Methyl pyrazole
[3]; 0.625 mM
  % Inhibition: 0%
[3]; 1.25 mM
  % Inhibition: 0%
[3]; 2.5 mM
  % Inhibition: 0%
[3]; 5 mM
  % Inhibition: 0%

Source: patent US5853742A, “Cosmetic compositions containing lactate dehydrogenase inhibitors” (priority 1997, dated 1998)
